The values that follow come from US10947252B2, “Inhibitors of KEAP1-Nrf2 protein-protein interaction” (Janssen Pharmaceutica NV, priority 2018, dated 2021).

One may read the Kd as the concentration at which binding is half-saturated. The EC50 is the concentration at which the effect is half-maximal. A high value points to a need for much substance.

Test [1] addresses Kelch domain of human KEAP1 (321-624 aa) (Homo sapiens (Human), UniProt Q14145). The test is described as follows: KEAP1 KELCH ThermoFluor binding assay.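 Further: Ligand-induced melting temperature shift of E. coli-expressed KEAP1 Kelch protein, Kd estimated from concentration-response curves of ΔTm.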 To be noted: KEAP Kelch […], 1,8-ANS, pH 7.0, average of results obtained, read-out: Tf Kd. (Differential scanning fluorimetry follows unfolding on heating by fluorescence.)
Test [2] concerns Glo-Response ARE-luc2P HEK293 cell line. As to the kind of experiment: ARE luciferase reporter cell-based assay.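 Further: luciferase signal tracks Nrf2 activation of the ARE once compounds disrupt KEAP1-Nrf2 binding, read with One-Glo reagent, DMSO serving as low control.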 The settings on record: average of results obtained.

Sequence of Kelch domain of human KEAP1 (321-624 aa) (Q14145 321-624): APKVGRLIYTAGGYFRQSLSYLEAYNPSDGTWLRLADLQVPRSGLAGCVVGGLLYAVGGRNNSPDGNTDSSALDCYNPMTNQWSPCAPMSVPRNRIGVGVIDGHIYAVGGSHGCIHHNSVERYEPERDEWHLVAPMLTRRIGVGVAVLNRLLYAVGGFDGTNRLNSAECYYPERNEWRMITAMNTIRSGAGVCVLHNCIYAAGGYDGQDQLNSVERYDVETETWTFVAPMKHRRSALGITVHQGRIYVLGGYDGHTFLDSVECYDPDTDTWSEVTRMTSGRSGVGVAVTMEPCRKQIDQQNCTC

For `Cc1ccc([C@@H](c2ccn3c(C(F)(F)F)nnc3c2C)C(C)(C)C(=O)O)cc1CN1CC2(CCOCC2)Oc2nc(N[C@@H](C)CCO)ccc2S1(=O)=O` (single isomer, unassigned) [Example 121, (*S)-3-(3-((7′-(((S)-4-Hydroxybutan-2-yl)amino)-1′,1′-dioxido-2,3,5,6-tetrahydrospiro[pyran-4,4′-pyrido[2,3-b][1,4,5]oxathiazepin]-2′(3′H)-yl)methyl)-4-methylphenyl)-2,2-dimethyl-3-(8-methyl-3-(trifluoromethyl)-[1,2,4[triazolo[4,3-a]pyridine-7-yl)propanoic Acid], the Kd in test [1] is under 1 nM. This compound had an EC50 in test [2] (Homo sapiens, HEK293, 24 h) of 157 nM.
`CCn1nnc2c(C)c([C@H](CC(=O)O)c3ccc(C)c(CN4CC5(CC5)Oc5ncccc5S4(=O)=O)n3)ccc21` (single isomer, unassigned) [Example 244, (*S)-3-(6-((1′,1′-Dioxidospiro[cyclopropane-1,4′-pyrido[2,3-b][1,4,5]oxathiazepin]-2′(3′H)-yl)methyl)-5-methylpyridin-2-yl)-3-(1-ethyl-4-methyl-1H-benzo[d][1,2,3]triazol-5-yl)propanoic Acid]: the Kd in test [1] is under 1 nM. In test [2] (Homo sapiens, HEK293, 24 h), this compound had an EC50 of 35 nM.
Consider `Cc1ccc([C@H](CC(=O)O)c2ccc3c(nnn3C)c2C(F)F)cc1CN1CC2CCCN2c2ncccc2S1(=O)=O` (single isomer, unassigned) [Example 72, (*S)-3-(4-(Difluoromethyl-1-methyl-1H-benzo[d][1,2,3]triazol-5-yl)-3-(3-(((R-5,5-dioxido-7a,8,9,10-tetrahydropyridi[2,3-f]pyrrolo[2,1-d][1,2,5]thiadiazepin-6(7H)-yl)methyl)-4-methylphenyl)propanoic Acid], for which the Kd in test [1] was determined as 5.4 nM. In addition, the EC50 in test [2] (24 hours) stood at 1970 nM.
Regarding `Cc1ccc([C@@H](c2ccn3c(C(F)F)nnc3c2C)C(C)(C)C(=O)O)nc1CN1CC2(CCOCC2)Oc2nc(OCCN3CCCCC3)c(C)cc2S1(=O)=O` (single isomer, unassigned) [Example 354, (*S)-3-(3-(Difluoromethyl)-8-methyl-[1,2,4]triazolo[4,3-a]pyridin-7-yl)-2,2-dimethyl-3-(5-methyl-6-((8′-methyl-1′,1′-dioxido-7′-(2-(piperidin-1-yl)ethoxy)-2,3,5,6-tetrahydrospiro[pyran-4,4′-pyrido[2,3-b][1,4,5]oxathiazepin]-2′(3′H)-yl)methyl)pyridin-2-yl)propanoic Acid], the Kd in test [1] was under 1 nM. The compound further displayed an EC50 in test [2] (Homo sapiens, HEK293, 24 h) of 20.6 nM.
Consider `Cc1ccc([C@@H](CC(=O)O)c2ccn3c(C(F)(F)F)nnc3c2C)cc1CN1CC(C)(C)Oc2ncccc2S1(=O)=O` (single isomer, unassigned) [Example 270, (*R)-3-(3-((4,4-Dimethyl-1,1-dioxido-3,4-dihydro-2H-pyrido[2,3-b][1,4,5]oxathiazepin-2-yl)methyl)-4-methylphenyl)-3-(8-methyl-3-(trifluoromethyl)-[1,2,4]triazolo[4,3-a]pyridin-7-yl)propanoic Acid], for which the Kd in test [1] worked out at 1.28 nM. This compound also showed an EC50 in test [2] (Homo sapiens, HEK293, 24 h) of 2420 nM.
For `Cc1ccc([C@@H](c2ccn3c(C(F)(F)F)nnc3c2C)C(C)(C)C(=O)O)cc1CN1CC2(CC2)Oc2nc(OCCN3CCCCC3)c(C)cc2S1(=O)=O` (single isomer, unassigned) [Example 372, (*S)-2,2-Dimethyl-3-(4-methyl-3-((8′-methyl-1′,1′-dioxido-7′-(2-(piperidin-1-yl)ethoxy)spiro[cyclopropane-1,4′-pyrido[2,3-b][1,4,5]oxathiazepin]-2′(3′H)-yl)methyl)phenyl)-3-(8-methyl-3-(trifluoromethyl)-[1,2,4]triazolo[4,3-a]pyridine-7-yl)propanoic Acid], in that order: under 1 nM and 2.9 nM.
For the compound `Cc1ccc([C@@H](CC(=O)O)c2ccc3c(nnn3CC3CC3)c2C)cc1CN1C[C@]2(C)CCCN2c2ncccc2S1(=O)=O` (single isomer, unassigned) [Example 13, (*R)-3-(1-(Cyclopropylmethyl)-4-methyl-1H-benzo[d][1,2,3]triazol-5-yl)-3-(4-methyl-3-(((*S)-7a-methyl-5,5-dioxido-7a,8,9,10-tetrahydropyrido[2,3-f]pyrrolo[2,1-d][1,2,5]thiadiazepin-6(7H)-yl)methyl)phenyl)propanoic Acid], the Kd in test [1] was 0.079 nM. In addition, a half-maximal response in test [2] (Homo sapiens, HEK293, 24 h) (EC50) required 37.8 nM.
For the compound `Cc1ccc([C@@H](c2ccn3c(C(F)(F)F)nnc3c2C)C(C)(C)C(=O)O)cc1CN1CC2(CC2)Oc2nc(OCCN3CCC(F)CC3)c(C)cc2S1(=O)=O` (single isomer, unassigned) [Example 661, (*S)-3-(3-((7′-(2-(4-fluoropiperidin-1-yl)ethoxy)-8′-methyl-1′,1′-dioxidospiro[cyclopropane-1,4′-pyrido[2,3-b][1,4,5]oxathiazepin]-2′(3′H)-yl)methyl)-4-methylphenyl)-2,2-dimethyl-3-(8-methyl-3-(trifluoromethyl)-[1,2,4]triazolo[4,3-a]pyridine-7-yl)propanoic Acid], the Kd in test [1] was under 1 nM.
As for `Cc1ccc([C@@H](c2ccc3c(nnn3C3CC3)c2C)C(C)(C)C(=O)O)cc1CN1CC2(CC2)Oc2nc(N[C@@H](C)CN3CCCCC3)c(C)cc2S1(=O)=O` (single isomer, unassigned) [Example 659, (*S)-3-(1-Cyclopropyl-4-methyl-1H-benzo[d][1,2,3]triazol-5-yl)-2,2-dimethyl-3-(4-methyl-3-((8′-methyl-1′,1′-dioxido-7′-(((S)-1-(piperidin-1-yl)propan-2-yl)amino)spiro[cyclopropane-1,4′-pyrido[2,3-b][1,4,5]oxathiazepin]-2′(3′H)-yl)methyl)phenyl)propanoic Acid], in test [1], the Kd is under 1 nM.
On to `Cc1cnc2c(c1)S(=O)(=O)N(Cc1cc([C@H](c3ccn4c(C(F)(F)F)nnc4c3C)C(C)(C)C(=O)O)cnc1C)CC1(CC1)O2` (single isomer, unassigned) [Example 573, (*S)-2,2-Dimethyl-3-(8-methyl-3-(trifluoromethyl)-[1,2,4]triazolo[4,3-a]pyridin-7-yl)-3-(6-methyl-5-((8′-methyl-1′,1′-dioxidospiro[cyclopropane-1,4′-pyrido[2,3-b][1,4,5]oxathiazepin]-2′(3′H)-yl)methyl)pyridin-3-yl)propanoic Acid], for which, in test [1], the Kd was under 1 nM.
For `Cc1cnc2c(c1)S(=O)(=O)N(Cc1cc(C(c3ccn4c(C(F)(F)F)nnc4c3C)C(C)(C)C(=O)O)cnc1C)CC1(CC1)O2` (single isomer, unassigned) [Example 574, (*R)-2,2-Dimethyl-3-(8-methyl-3-(trifluoromethyl)-[1,2,4]triazolo[4,3-a]pyridin-7-yl)-3-(6-methyl-5-((8′-methyl-1′,1′-dioxidospiro[cyclopropane-1,4′-pyrido[2,3-b][1,4,5]oxathiazepin]-2′(3′H)-yl)methyl)pyridin-3-yl)propanoic Acid], the Kd in test [1] was 6750 nM.
With `Cc1cnc2c(c1)S(=O)(=O)N(Cc1cc([C@H](CC(=O)O)c3ccn4c(C(F)(F)F)nnc4c3C)ccc1C)C[C@@H]1CCCCN21` (relative stereo) [Example 307, (*S)-3-(4-methyl-3-(((*S)-3-methyl-5,5-dioxido-7,7a,8,9,10,11-hexahydro-6H-dipyrido[2,1-d:2′,3′-f][1,2,5]thiadiazepin-6-yl)methyl)phenyl)-3-(8-methyl-3-(trifluoromethyl)-[1,2,4]triazolo[4,3-a]pyridin-7-yl)propanoic Acid], it took 2 nM to reach a half-maximal effect in test [2] (Homo sapiens, HEK293, 24 h) (EC50).
Compound `Cc1ccc([C@@H](c2ccn3c(C(F)(F)F)nnc3c2C)C(C)(C)C(=O)O)cc1CN1CC2(CCOCC2)Oc2nc(NCCCO)ccc2S1(=O)=O` (single isomer, unassigned) [Example 115, (*S)-3-(3-((7′-((3-Hydroxypropyl)amino)-1′,1′-dioxido-2,3,5,6-tetrahydrospiro[pyran-4,4′-pyrido[2,3-b][1,4,5]oxathiazepin]-2′(3′H)-yl)methyl)-4-methylphenyl)-2,2-dimethyl-3-(8-methyl-3-(trifluoromethyl)-[1,2,4[triazolo[4,3-a]pyridine-7-yl)propanoic Acid] showed an EC50 in test [2] (Homo sapiens, HEK293, 24 h) of 133 nM.
Consider `CCn1nnc2c(C)c([C@@H](CC(=O)O)c3ccc(C)c(CN4C[C@@H]5COCCN5c5ncccc5S4(=O)=O)c3)ccc21` (single isomer, unassigned) [Example 139, (*S)-3-(3-(((*R)-5,5-Dioxido-7a,8,10,11-tetrahydro-[1,4]oxazino[3,4-d]pyrido[2,3-f][1,2,5]thiadiazepin-6(7H)-yl)methyl)-4-methylphenyl)-3-(1-ethyl-4-methyl-1H-benzo[d][1,2,3]triazol-5-yl)propanoic Acid], for which it took 3.3 nM to reach a half-maximal effect in test [2] (Homo sapiens, HEK293, 24 h) (EC50).
`Cc1cnc2c(c1)S(=O)(=O)N(Cc1cc(C(c3ccn4c(C(F)(F)F)nnc4c3C)C(C)(C)C(=O)O)ccc1C)CC1(CCOCC1)O2` (centres unmarked) [Example 406, 2,2-Dimethyl-3-(4-methyl-3-((8′-methyl-1′,1′-dioxido-2,3,5,6-tetrahydrospiro[pyran-4,4′-pyrido[2,3-b][1,4,5]oxathiazepin]-2′(3′H)-yl)methyl)phenyl)-3-(8-methyl-3-(trifluoromethyl)-[1,2,4]triazolo[4,3-a]pyridin-7-yl)propanoic Acid] yielded an EC50 in test [2] (24 hours) of 3.6 nM.
For the compound `CCn1nnc2c(C)c([C@@H](CC(=O)O)c3ccc(C)c(CN4C[C@@H]5CCCCN5c5ncccc5S4(=O)=O)c3)ccc21` (single isomer, unassigned) [Example 142, (*S)-3-(3-(((*S)-5,5-Dioxido-7,7a,8,9,10,11-hexahydro-6H-dipyrido[2,1-d:2′,3′-f][1,2,5]thiadiazepin-6-yl)methyl)-4-methylphenyl)-3-(1-ethyl-4-methyl-1H-benzo[d][1,2,3]triazol-5-yl)propanoic Acid], the EC50 in test [2] (Homo sapiens, HEK293, 24 h) came out at 1.1 nM.
